Assay results taken from article PMC12563652 (International Journal of Molecular Sciences, 2025).
Like-named read-outs stand apart in the source and are kept apart here.

Tests used:
[1] = tested on: HepG2 cells; experiment: Glucose consumption (Amplex Red assay) in HepG2 cells; format: cell-based, human; details: for increase in glucose consumption (uptake): relative to vehicle-treated cells
Protocol: The HepG2 human hepatocellular carcinoma cell line (ATCC® HB-8065™) was cultured in DMEM supplemented with 10% FBS, 100 µg/mL streptomycin, and 100 IU/mL penicillin at 37 °C in 5% CO2. Cells were seeded in 96-well plates at a density of 10,000 cells/well and used for experiments 24 h after plating.
Stock solutions of test compounds were prepared at a concentration of 10 mM in dimethyl sulfoxide (DMSO). At least 1 mg of each substance was carefully measured and mixed with the right amount of DMSO. A series of dilutions were made in DMSO and then further diluted in phosphate-buffered saline before being introduced into the cell culture medium. Precipitation or opalescence was assessed prior to application.
The glucose uptake was measured with the Amplex® Red Glucose/Glucose Oxidase Assay Kit from Thermo Fisher Scientific, following the guidelines provided by the maker. Cell culture supernatants were collected and incubated with a reaction mix containing 100 μM Amplex® Red reagent, 0.2 U/mL horseradish peroxidase (HRP), and 1 U/mL glucose oxidase at room temperature for 30 min in the dark. Fluorescence was measured at 530 nm excitation and 590 nm emission using the POLARstar Omega plate reader (BMG Labtech).

[2] = tested on: 3T3-L1 cells; experiment: Lipid accumulation (AdipoRed assay) in 3T3-L1 cells; format: cell-based, mouse; details: for lipid accumulation (intracellular lipid content), reduction: 10 µM, compared to vehicle-treated controls
Protocol: (§1) The 3T3-L1 mouse embryonic fibroblast cell line (ATCC CRL-11605) was cultured according to the standard protocol in Dulbecco’s Modified Eagle Medium (DMEM) supplemented with 10% bovine calf serum, 100 µg/mL streptomycin, and 100 IU/mL penicillin, at 37 °C in a humidified atmosphere containing 5% CO2. Cells were seeded at a density of 10,000 cells/well in collagen type I–coated (10 µg/mL) 96-well plates and allowed to attach for 24 h. Differentiation was initiated by replacing the medium with induction medium composed of DMEM, 0.5 mM 3-isobutyl-1-methylxanthine (IBMX), 1 µM dexamethasone, and 10% fetal bovine serum (FBS). After 48 h (differentiation day 2), the medium was replaced with DMEM supplemented with 10% FBS and 10 µg/mL human recombinant insulin. After an additional 24 h, the medium was replaced with DMEM supplemented with 10% bovine calf serum, 100 µg/mL streptomycin, and 100 IU/mL penicillin. The medium was refreshed every 24 h for 10 consecutive days to allow full differentiation into adipocytes.
On day 10 of differentiation, cells were treated with test compounds for 24 h. To investigate the involvement of the TAAR1 receptor, cells were pre-treated for 15 min with the selective TAAR1 antagonist RTI-7470-44 (40 nM) before compound exposure. After incubation, the culture medium was removed, and wells were gently rinsed with 200 µL PBS and refilled with 200 µL PBS. AdipoRed reagent (5 µL; Lonza) was added to each well, mixed, and incubated at room temperature for 10 min. Fluorescence was measured using the POLARstar Omega plate reader (excitation 485 nm, emission 535 nm).

[3] = tested on: C57BL/6 mice; experiment: Inhibition of gastric emptying (mouse model, phenol red); format: in vivo
Protocol: Fifty male C57BL/6 mice (22–27 g) were housed in standard cages while maintaining a 12:12-h light/dark cycle, with food and water available ad libitum. The experimental procedures were performed from 10:00 a.m. to 14:00 p.m.
The experiment was conducted according to Miyasaka et al. and Kotańska et al., with some minor modifications. Mice were subjected to a 20 h food deprivation and a 2 h water deprivation prior to testing. The animals received a vehicle (0.25 mL/mouse) alone or along with various compounds: JP-14 (10 mg/kg b. w.), RT (5 mg/kg body weight), metformin (100 mg/kg b. w.), or loperamide (reference compound; 10 mg/kg b. w.) via gastric gavage. Following a 45 min interval, phenol red (0.5 mL, 0.05% w/v) combined with glucose (1 g/kg body weight) was administered through the same route. Additionally, each group received an intraperitoneal injection of heparin (2500 U/mouse) 20 min prior to the collection of stomach contents. Seven mice treated with the vehicle were sacrificed immediately after the phenol red administration to serve as a standard control (representing 100% phenol red in the stomach at 0 min), establishing a baseline for maximum absorbance (100%). The leftover mice were sacrificed 30 min later. The stomachs were removed and homogenized using an OMNI homogenizer (OMNI International Company, Kennesaw, GA, USA), with 10 mL of 0.1 N NaOH. To 5 mL of homogenate, 0.5 mL of 20% w/v solution of trichloroacetic acid was incorporated to precipitate the proteins. Subsequently, the samples were centrifuged at 600× g for 15 min at a temperature of 20 °C, and 0.25 mL of supernatant was mixed with 1 mL of 0.5 N NaOH to achieve maximum color intensity. The concentration of phenol red was measured using spectrophotometry, with absorbance evaluated at a wavelength of 560 nm (MuLTISKAN.GO, Thermo Fisher Scientific Inc., Waltham, MA USA). For each mouse, the percentage of gastric emptying (GE %) was calculated using the following equation:(1) GE%=(Ac0−Ab)/(Ac0−Ac30)×100% where: Ac0 is the absorbance of the control gastric sample collected immediately after dye administration, and Ac30 is the absorbance of the control gastric sample collected 30 min after dye administration, i.e., Ac0–Ac30 = 100% gastric emptying.

[4] = target: α2-adrenoceptor; experiment: Competitive radioligand binding, [3H]clonidine, rat cerebral cortex; details: n.a. = no activity at 10–5 M
Protocol: The competitive radioligand-binding assay assessed affinity for α1- and α2-adrenoceptors. Experiments were carried out in the rat cerebral cortex. […] The membrane preparation and assay technique followed the previously reported protocol [10]. Radioactivity was measured using the MicroBeta2 scintillation counter (PerkinElmer, Kraków, Poland). The data was adjusted to match a single-site curve-fitting formula using Prism 8 (GraphPad Software, La Jolla, CA, USA), and the Ki values were estimated by means of the Cheng–Prusoff formula.

[5] = tested on: multiple species TAAR1 (mouse, rat, and human); parameters: method as in PMID 31848873; details: heterologous cell lines; cited from earlier work
[6] = target: T1, human TAAR1 (Homo sapiens, UniProt Q96RJ0); experiment: TAAR1 agonist activity, Hit Hunter cAMP assay; format: cell-based; details: cAMP accumulation; n.a. = no activity at 10–5 M; read-out: TAAR1 Ago EC50
T1 sequence (Q96RJ0 1-339): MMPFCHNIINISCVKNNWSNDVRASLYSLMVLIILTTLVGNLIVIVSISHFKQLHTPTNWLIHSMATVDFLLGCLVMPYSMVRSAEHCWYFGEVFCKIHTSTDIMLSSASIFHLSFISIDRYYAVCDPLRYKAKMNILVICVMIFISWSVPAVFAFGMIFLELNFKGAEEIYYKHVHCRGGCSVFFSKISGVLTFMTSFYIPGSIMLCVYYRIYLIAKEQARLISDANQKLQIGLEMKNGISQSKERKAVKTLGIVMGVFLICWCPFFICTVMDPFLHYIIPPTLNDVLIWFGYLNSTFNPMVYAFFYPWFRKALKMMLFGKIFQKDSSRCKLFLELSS
Protocol: The intrinsic activity of the TAAR1 receptor will be assessed according to the manufacturer’s protocol, using the Hit Hunter® cAMP assay by DiscoverX. This assay enables monitoring of GPCR activation in cells stably expressing TAAR1 by measuring changes in the level of the secondary messenger, cAMP. The cAMP Hunter cell lines were cultured from frozen stocks following standard procedures. Cells were plated in white-walled 384-well microplates at a total volume of 20 µL per well and incubated at 37 °C for the required period before analysis. To assess agonist activity, cells were exposed to the test compound to trigger a response. The culture medium was then removed and replaced with 15 µL of a 2:1 mixture of HBSS and 10 mM Hepes containing the cAMP XS+ antibody reagent. Sample stocks were diluted to prepare a 4× concentration in assay buffer. Subsequently, 5 µL of the 4× sample was added to each well, and the plates were incubated at either 37 °C or room temperature for 30 or 60 min. The vehicle was used at a concentration of 1%. After incubating the compounds for the required time, the assay signal was produced by adding 20 µL of the cAMP XS+ ED/CL lysis cocktail and incubating for one hour. This was followed by a three-hour incubation with 20 µL of the cAMP XS+EA reagent at room temperature. After signal development, the microplates were read using a PerkinElmer Envision Reader to detect chemiluminescence.

[7] = tested on: 3T3-L1 adipocytes; experiment: Steatosis, HCS LipidTOX imaging in 3T3-L1 adipocytes; format: cell-based, mouse
Protocol: as §1
(§2) Lipid accumulation and phospholipidosis were evaluated using the HCS LipidTOX Phospholipidosis and Steatosis Detection Kit (Thermo Fisher Scientific). Cells were cultured in black, clear-bottom 96-well plates and treated as described. Next, cells were fixed with 4% paraformaldehyde (15 min), washed with PBS, and stained with LipidTOX Green Neutral Lipid Stain (for steatosis) and LipidTOX Red Phospholipidosis Detection Reagent, prepared according to the manufacturer’s instructions. Nuclei were counterstained with Hoechst 33342 (2 µg/mL). Image acquisition and quantitative analysis were performed using High Content Screening (HCS) technology on the ImageXpress XLS system (Molecular Devices). Lipid droplet and phospholipid content were quantified using automated image analysis pipelines.

[8] = tested on: 3T3-L1 adipocytes; experiment: Phospholipidosis, HCS LipidTOX imaging in 3T3-L1 adipocytes; format: cell-based, mouse
Protocol: as §1, §2

[9] = tested on: 3T3L1 cell line; format: cell-based; details: mouse, 24 h
Protocol: (§3) Prior to investigating the biological activity and molecular characteristics of the test compounds in vitro, a comprehensive cytotoxicity screening was performed using HepG2 and 3T3-L1 cell lines. Two complementary assays were applied: one based on the quantification of adenylate kinase release as an indicator of cell membrane damage, and another relying on resazurin reduction to assess cellular metabolic activity. These complementary assays enable sensitive and reliable detection of cytotoxic effects across diverse cell types. This preliminary assessment was carried out to ensure that subsequent functional analyses would not be confounded by nonspecific cytotoxic effects.
(§4) The damage of cell membrane was evaluated with the ToxiLight BioAssay Kit from Lonza (Visp, Switzerland). This test is very sensitive and measures cell damage by looking at the release of adenylate kinase (AK). After 24 h of treatment, 5 µL of culture supernatant was transferred to a 384-well white plate (PerkinElmer, Singapore), followed by the addition of 20 µL of Adenylate Kinase Detection Reagent (AKDR). After a 10 min incubation at room temperature, luminescence was measured using the POLARstar Omega plate reader (BMG Labtech, Ortenberg, Germany). Results were expressed as a percentage relative to a lysed control (100% cell death).

[10] = tested on: HEPG2 cell line; format: cell-based; details: human, 24 h
Protocol: as §3, §4

[11] = tested on: HEPG2 cell line; experiment: Cell viability assay (PrestoBlue, metabolic function), HepG2; format: cell-based, human; details: 24 h, mean
Protocol: as §3
(§5) Cell viability was measured using PrestoBlue reagent (Thermo Fisher Scientific, Waltham, MA, USA), following the manufacturer’s instructions. After 24 h of compound treatment, PrestoBlue reagent was added to each well at 10% of the remaining medium volume. The plate was incubated at 37 °C for 15 min, and fluorescence was measured using the POLARstar Omega plate reader (excitation 530 nm, emission 580 nm). Results were expressed as a percentage of viable cells relative to the DMSO-treated control.

[12] = tested on: 3T3-L1 cell line; experiment: Cell viability assay (PrestoBlue, metabolic function), 3T3-L1; format: cell-based, mouse; details: 24 h, mean
Protocol: as §3, §5

For `Clc1cccc(N2CCNCC2)c1` [mCPP, meta-chlorophenylpiperazine], the “increase in glucose consumption (uptake)” value ([1]; 10 µM) was “no significant changes” and the “lipid accumulation (intracellular lipid content), reduction” value [2] was “significantly increased lipid accumulation”.
For `CN(C)C(=O)C(CCN1CCC(O)(c2ccc(Cl)cc2)CC1)(c1ccccc1)c1ccccc1` [loperamide], the “percentage inhibition of gastric emptying” value ([3]; intragastric, 10 mg/kg b.w.) was “about 55%”.
In the case of `CN(C)C(=N)N=C(N)N` [Metformin, metformin], the “increase in glucose consumption (uptake)” value ([1]; 100 µM) is reported as 36% and the “inhibitory effect on gastric emptying” value ([3]; 100 mg/kg b.w.) is reported as “about 30%”.
Work on `N#Cc1cc(/C=N/NC(=N)N)ccc1F` yielded a Ki [4] of 0.996 µM.
For `NCCc1c[nH]c2ccccc12` [tryptamine], the EC50 [5] is given as 0.4 to 21 µM.
For `NCC(O)c1ccc(O)cc1` (stereo not drawn) [para-octopamine], the EC50 [5] is listed as 2 to 20 µM.
For `CN(CCOc1ccc(CC2SC(=O)NC2=O)cc1)c1ccccn1` (stereo not drawn) [Rosiglitazone, rosiglitazone], the “lipid accumulation, reduction” value ([2]; 100 µM, relative to vehicle-treated cells) was 90%.
With `NCCc1ccc(O)cc1` [tyramine] the EC50 [6] was 5.87 ± 0.47 µM, the “glucose-stimulating effect under TAAR1 blockade” value ([1]; 10 µM + RTI-7470-44 (40 nM)) was “substantially attenuated” and the “increase in glucose consumption (uptake)” value ([1]; 10 µM) was 32%. For the same compound, the “lipid-lowering effect under TAAR1 blockade” value ([2]; 10 µM + RTI-7470-44 (40 nM)) was “completely abolished”, the “lipid accumulation (intracellular lipid content), reduction” value [2] was 33% and the “effect on steatosis under TAAR1 blockade” value ([7]; 10 µM + RTI-7470-44 (40 nM)) was “abolished”. For the same compound, the “steatosis (neutral lipid accumulation)” value ([7]; 10 µM, vs vehicle) was “statistically significant decrease”, the “effect on phospholipidosis under TAAR1 blockade” value ([8]; 10 µM + RTI-7470-44 (40 nM)) was “reversed” and the “phospholipidosis (phospholipid accumulation)” value ([8]; 10 µM, vs vehicle) was “significantly reduced”. The “membrane integrity, percentage relative to control (death cells)” value ([9]; 0.1 μM) was 6%, the “membrane integrity, percentage relative to control (death cells)” value ([9]; 1 μM) was 6% and the “membrane integrity, percentage relative to control (death cells)” value ([9]; 10 μM) was 6%. The “membrane integrity, percentage relative to control (death cells)” value ([9]; 50 μM) was 6%, the “membrane integrity, percentage relative to control (death cells)” value ([9]; 100 μM) was 8% and the “membrane integrity, percentage relative to control (death cells)” value ([10]; 0.1 μM) was 8%. The “membrane integrity, percentage relative to control (death cells)” value ([10]; 1 μM) was 7%, the “membrane integrity, percentage relative to control (death cells)” value ([10]; 10 μM) was 7% and the “membrane integrity, percentage relative to control (death cells)” value ([10]; 50 μM) was 8%. For the same compound, the “membrane integrity, percentage relative to control (death cells)” value ([10]; 100 μM) was 11%, the “cellular metabolic function, percentage relative to control (live cells)” value ([11]; Table S4, 0.1 μM) was 101% and the “cellular metabolic function, percentage relative to control (live cells)” value ([11]; Table S4, 1 μM) was 98%. The “cellular metabolic function, percentage relative to control (live cells)” value ([11]; Table S4, 10 μM) was 97%, the “cellular metabolic function, percentage relative to control (live cells)” value ([11]; Table S4, 50 μM) was 89% and the “cellular metabolic function, percentage relative to control (live cells)” value ([11]; Table S4, 100 μM) was 80%. For the same compound, the “cellular metabolic function, percentage relative to control (live cells)” value ([12]; Table S5, 0.1 μM) was 95%, the “cellular metabolic function, percentage relative to control (live cells)” value ([12]; Table S5, 1 μM) was 90% and the “cellular metabolic function, percentage relative to control (live cells)” value ([12]; Table S5, 10 μM) was 88%. The “cellular metabolic function, percentage relative to control (live cells)” value ([12]; Table S5, 50 μM) was 67% and the “cellular metabolic function, percentage relative to control (live cells)” value ([12]; Table S5, 100 μM) was 55%.
`COc1ccc(/C=N/NC(=N)N)cc1` [4 (JP06)] gave a Ki [4] of 1.07 ± 0.078 µM.
